Tests used:
[1] = molecular target: recombinant human angiotensin-II receptor subtype I (hAT1R) (Homo sapiens (Human), UniProt P30556); assay: Competitive radioligand binding assay (SPA), hAT1R/CHO membranes; settings: [125I]-Tyr4-Angiotensin-II, read-out: AT1R Ki
Experimental: Membranes hATIR/CHO were Purchased from PerkinElmer, Inc.
Cellular membranes prepared from Chinese hamster ovary (CHO) cells which expressed recombinant human angiotensin-II receptor subtype I (hAT1R), were purchased from PerkinElmer (Catalog Number ES-072-M400UA).
(§1) Receptor Binding Protocol
(§2) The assays were performed with a scintillation proximity assay (SPA) method using polyvinyltoluene (PVT) wheat germ agglutinin-coupled SPA beads (Perkin Elmer Cat. #RPNQ0001). Assay buffer containing BSA (50 mM Tris-HCl, pH 7.5, 150 mM NaCl, 0.1% w/v fatty-acid free BSA) was used for preparing radioligand, membrane and SPA bead reagent dilution to working stock concentrations. Reference control and test compounds were diluted to obtain ten-point concentration response curves using a four-fold serial dilution protocol onto assay plates, dispensed acoustically from DMSO stock using automated ECHO instrument technology (Labcyte, Inc.). Concentration response curves were routinely generated with the highest final assay concentration for the reference angiotensin-II control at 50 nM, and the highest final assay concentration for the test compounds at 50 μM. […] The hAT2R membrane was combined with PVT-WGA SPA beads to obtain a final assay concentration of 0.25 μg/well hAT2R membrane+0.1 mg/well PVT-WGA SPA bead. And the hAT1R membrane PVT-WGA SPA bead final concentrations was 0.5 μg/well hAT1R membrane+0.1 mg/well PVT-WGA SPA bead. […] For all assays, radioligand addition was followed by the addition of membrane-SPA bead mixture, i.e., the hAT2R membrane-SPA bead mixture (30 μL), the rAT2R membrane-SPA bead mixture, or the AT1R membrane-SPA bead mixture (30 μL) into the assay plate. All dispensing steps were added using a Multiflo FX (Biotek, Inc.) bulk dispensing instrument. After reagent addition steps, assay plates were sealed, and plate contents mixed for one minute on a benchtop micro-plate shaker. Following a 10-hour incubation at room temperature to allow for bead settling and radioligand binding, bound radioactivity was quantitated using a Microbeta Trilux scintillation counter (Perkin Elmer) and expressed as counts per minute (CPM). The unlabeled angiotensin-II control was included on each plate as an experimental assay reference.
(§3) Compounds were tested in a 10-point concentration response curve (CRC) format, with each plate containing the positive control angiotensin-II positive reference compound, and experimental compounds. Maximum binding response (Max) was determined in 32 control wells per plate using assay buffer treatment only, and the minimum binding controls or nonspecific binding response (Min) was also determined in 32 wells per plate by the treatment with 50 nM angiotensin-II. All test sample concentration responses were normalized to the control response and calculated as a percent of the maximal response after correcting for nonspecific binding as shown below: % Specific inhibition=100%−[(CPM−Min)/(Max−Min)×100%]
(§4) Percent specific binding (y-axis) was plotted versus the log concentration of compound (x-axis).
Binding affinities for compounds of the present disclosure were determined according to the assay described herein.
Binding affinities for compounds of the present disclosure were determined according to the assay described above.

[2] = molecular target: recombinant human angiotensin-II receptor subtype 2 (hAT2R) (Homo sapiens (Human), UniProt P50052); assay: Competitive radioligand binding assay (SPA), hAT2R HEK293 membranes; settings: [125I]-Tyr4-Angiotensin-II, read-out: AT2R Ki
Method in brief: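 SPA competition binding on membranes from HEK293 cells stably transfected with hAT2R (0.25 μg/well, with 0.1 mg/well PVT-WGA beads) in 50 mM Tris-HCl pH 7.5, 150 mM NaCl, 0.1% fatty-acid-free BSA. Ten-point four-fold dilution curves ran from 50 μM top final concentration. Bound radioactivity was counted (CPM) after 10 h at room temperature.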

rAT2R = rAT2R (Rattus norvegicus (Rat), UniProt P35351); assay: Rat binding affinity, competitive radioligand binding assay (SPA), rAT2R HEK293 membranes; settings: rat AT2R
Experimental: Membrane Preparation Protocol (hAT2R HEK293 and rAT2R HEK293)
as §1, §2, §3, §4

AT2R [3] = molecular target: T1, AT2R (Rattus norvegicus (Rat), UniProt P35351); assay: AT2R ex vivo autoradiography receptor occupancy in rat adrenal sections after oral dosing; design: species or system Sprague Dawley rats; settings: for IC50 / IC80: plasma concentration plotted vs % receptor occupancy, rat; for ex vivo IC50 (TER) / ex vivo IC80 (TER): rat receptor occupancy; for receptor occupancy at 10 mg/kg: oral dose 10 mg/kg; for receptor occupancy at 30 mg/kg: oral dose 30 mg/kg; for receptor occupancy at 100 mg/kg: oral dose 100 mg/kg; for receptor occupancy at 3 mg/kg: oral dose 3 mg/kg
Experimental: The ability for a compound to engage its target may be measured by determining compound's receptor occupancy. An ex vivo autoradiography assay was conducted as described herein.
Twenty male Sprague Dawley rats (140-150 gms, Envigo) were maintained under controlled laboratory conditions on a 12 hr light cycle with ad lib access to food and water. […] Following a pre-determined survival time, plasma and adrenals were collected and frozen at −80° C. until analyzed. Frozen 20 μm sections of an adrenal from each animal were collected onto gelatin-coated slides and stored at −80° C. […] The specific ligand binding for each animal is calculated by subtracting the non-specific binding from the total bound.

AT2R [4] = molecular target: T1, AT2R; assay: Inhibition of C21-induced increase in dermal blood flow (laser Doppler imaging); assay type: in vivo, Sprague Dawley rats
[5] = Plasma concentration of test compound in the receptor occupancy study; assay type: in vivo, Sprague Dawley rats; settings: rat
Experimental: Twenty male Sprague Dawley rats (140-150 gms, Envigo) were maintained under controlled laboratory conditions on a 12 hr light cycle with ad lib access to food and water. On the morning of the experiment, rats were orally dosed with vehicle (1% (w/v) hydroxyethylcellulose, 0.25% (w/v) polysorbate 80, 0.05% (v/v) antifoam 1510-US in purified water) or appropriate doses of test compound (5 mL/kg, n=4 rats/group) using the same vehicle. Following a pre-determined survival time, plasma and adrenals were collected and frozen at −80° C. until analyzed. Frozen 20 μm sections of an adrenal from each animal were collected onto gelatin-coated slides and stored at −80° C. Autoradiography to detect AT2R occupancy (RO) was conducted under cold conditions using methods modified from F. M. J. Heemskerk, et al, Brain Research 677 (1995) 29-38. Total binding was defined by 0.3 nM ^125I-CGP42112 (selective AT2R agonist, Perkin Elmer, Inc) with the addition of 10 μM unlabeled AngII used to define non-specific binding. Following exposure to a phosphoimager plate (BAS TR2025, GE Healthcare), the bound radioactivity is calculated with use of MCID software (Imaging Research, Inc) and calibrated ^125I standards (American Radiolabeled Chemicals, Inc). The specific ligand binding for each animal is calculated by subtracting the non-specific binding from the total bound.

recombinant human angiotensin-II receptor subtype 2 (hAT2R), sequence (P50052 whole entry): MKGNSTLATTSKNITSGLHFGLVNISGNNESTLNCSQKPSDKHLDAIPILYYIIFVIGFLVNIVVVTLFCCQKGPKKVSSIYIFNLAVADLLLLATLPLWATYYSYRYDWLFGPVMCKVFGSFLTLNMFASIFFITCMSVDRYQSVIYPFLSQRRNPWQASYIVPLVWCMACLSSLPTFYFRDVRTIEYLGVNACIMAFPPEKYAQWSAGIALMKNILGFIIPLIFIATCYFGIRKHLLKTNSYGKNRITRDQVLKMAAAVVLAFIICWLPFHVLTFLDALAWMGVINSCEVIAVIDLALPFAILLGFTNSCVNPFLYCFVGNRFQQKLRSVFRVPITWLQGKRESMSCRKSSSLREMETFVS
T1 sequence (P35351 whole entry): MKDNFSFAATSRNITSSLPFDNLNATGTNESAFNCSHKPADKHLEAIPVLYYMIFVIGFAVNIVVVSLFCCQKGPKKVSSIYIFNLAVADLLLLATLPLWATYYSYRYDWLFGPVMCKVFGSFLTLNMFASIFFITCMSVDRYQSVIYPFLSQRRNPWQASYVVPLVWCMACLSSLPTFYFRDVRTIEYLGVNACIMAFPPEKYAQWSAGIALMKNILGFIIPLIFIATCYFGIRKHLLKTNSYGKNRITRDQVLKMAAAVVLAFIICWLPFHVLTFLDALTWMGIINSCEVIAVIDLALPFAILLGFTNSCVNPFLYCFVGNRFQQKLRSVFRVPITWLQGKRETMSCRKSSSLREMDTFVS
rAT2R, sequence (P35351 whole entry): as above
recombinant human angiotensin-II receptor subtype I (hAT1R), sequence (P30556 whole entry): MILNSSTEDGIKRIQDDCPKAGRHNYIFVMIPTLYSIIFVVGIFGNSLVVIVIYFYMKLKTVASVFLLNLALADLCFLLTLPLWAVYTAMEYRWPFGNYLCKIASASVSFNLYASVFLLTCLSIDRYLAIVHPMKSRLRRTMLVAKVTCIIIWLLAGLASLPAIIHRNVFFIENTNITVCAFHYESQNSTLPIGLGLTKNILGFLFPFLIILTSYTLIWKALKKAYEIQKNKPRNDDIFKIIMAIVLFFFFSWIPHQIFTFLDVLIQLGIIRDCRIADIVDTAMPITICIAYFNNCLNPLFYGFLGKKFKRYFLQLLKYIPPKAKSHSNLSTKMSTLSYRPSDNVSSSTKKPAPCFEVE

## O=C(N1CCC(CC(=O)N(c2ccccc2)C2CCCC(F)(F)C2)(C(=O)O)CC1)N1CCc2ccccc21 (racemic) [Example 35, 4-[2-(N-(3,3-difluorocyclohexyl)anilino)-2-oxo-ethyl]-1-(indoline-1-carbonyl)piperidine-4-carboxylic acid]
[1]
  Ki: 37300 nM
[2]
  Ki: 2.79 nM

## N#Cc1ccc2c(c1)N(C(=O)N1CCC(CC(=O)N(c3ccccc3)C3CCCC(F)(F)C3)(C(=O)O)CC1)CC2 (racemic) [Example 47, 1-(6-cyanoindoline-1-carbonyl)-4-[2-(N-(3,3-difluorocyclohexyl)anilino)-2-oxo-ethyl]piperidine-4-carboxylic acid]
[1]
  Ki: 37300 nM
[2]
  Ki: 1.34 nM

## CN(C(=O)N1CCC(CC(=O)N(c2cccc(F)c2)C2CCCC(F)(F)C2)(C(=O)O)CC1)c1ccccc1 (racemic) [Example 53, 4-[2-(N-(3,3-difluorocyclohexyl)-3-fluoro-anilino)-2-oxo-ethyl]-1-[methyl(phenyl)carbamoyl]piperidine-4-carboxylic acid]
[1]
  Ki: 37300 nM
[2]
  Ki: 0.342 nM

## O=C(CC1(C(=O)O)CCN(C(=O)C2(c3ccccc3F)CC2)CC1)N(c1ccccc1)C1CCCC(F)(F)C1 (racemic) [Example 66, 4-[2-(N-(3,3-difluorocyclohexyl)anilino)-2-oxo-ethyl]-1-[1-(2-fluorophenyl)cyclopropanecarbonyl]piperidine-4-carboxylic acid]
[1]
  Ki: 37300 nM
[2]
  Ki: 0.619 nM

## CC(C)(C(=O)N1CCC(CC(=O)N(c2ccccc2)C2CCCC(F)(F)C2)(C(=O)O)CC1)c1ccccc1F (racemic) [Example 67, 4-[2-(N-(3,3-difluorocyclohexyl)anilino)-2-oxo-ethyl]-1-[2-(2-fluorophenyl)-2-methyl-propanoyl]piperidine-4-carboxylic acid]
[1]
  Ki: 37300 nM
[2]
  Ki: 2.31 nM

## O=C(N1CCC(CC(=O)N(c2ccccc2)C2CCCC(F)(F)C2)(C(=O)O)CC1)N1CCc2ccccc21 (single isomer, unassigned) [Example 35B, 4-[2-(N-(3,3-difluorocyclohexyl)anilino)-2-oxo-ethyl]-1-(indoline-1-carbonyl)piperidine-4-carboxylic acid]
[1]
  Ki: 37300 nM
[2]
  Ki: 1.03 nM

## O=C(CC1(C(=O)O)CCN(c2ccccn2)CC1)N(c1ccccc1)C1CCCC(F)(F)C1 (single isomer, unassigned) [Example 74B, 4-(2-((3,3-difluorocyclohexyl)(phenyl)amino)-2-oxoethyl)-1-(pyridin-2-yl)piperidine-4-carboxylic acid]
rAT2R
  Ki: 0.67 nM
[1]
  Ki: > 49900 nM
[2]
  Ki: 1.28 nM
AT2R [3]
  IC50: 1.58 nM
  IC80: 3.82 nM
  ex vivo IC50 (TER): 2.358 TER
  ex vivo IC80 (TER): 5.701 TER

## COc1ccc2c(c1OCc1ccccc1)C[C@@H](C(=O)O)N(C(=O)C(c1ccccc1)c1ccccc1)C2 [EMA401, Olodanrigan, reference compound]
rAT2R
  Ki: 4.47 nM
AT2R [3]
  IC50: 0.483 nM
  IC80: 3.03 nM
  ex vivo IC50 (TER): 0.108 TER
  ex vivo IC80 (TER): 0.678 TER
AT2R [3]; rat adrenal, read-out: % RO
  receptor occupancy at 10 mg/kg: 17.3%
  receptor occupancy at 30 mg/kg: 84.7%
  receptor occupancy at 100 mg/kg: 93.7%
AT2R [4]; dose 1 mg/kg, C21-induced increase in dermal blood flow
  inhibition at 1 mg/kg: 7.8%
AT2R [4]; dose 3 mg/kg, C21-induced increase in dermal blood flow
  inhibition at 3 mg/kg: 47.2%
AT2R [4]; dose 10 mg/kg, C21-induced increase in dermal blood flow
  inhibition at 10 mg/kg: 67.6%
AT2R [4]; C21-induced increase in dermal blood flow
  inhibition at 30 mg/kg: 86.9%
AT2R [4]; second, unlabelled column under % Inhibition
  inhibition at 30 mg/kg: 97.3%
[5]; oral dose 1 mg/kg
  [plasma, free, nM]: 6.39 nM
[5]; oral dose 3 mg/kg
  [plasma, free, nM]: 18.9 nM
[5]; oral dose 30 mg/kg
  [plasma, free, nM]: 6.28 nM
[5]; oral dose 100 mg/kg
  [plasma, free, nM]: 15.7 nM

## CCCCCN(C)C(=O)N1CCC(CC(=O)N(c2ccccc2)c2ccccc2)(C(=O)O)CC1 [Example 1, 1-[methyl(pentyl)carbamoyl]-4-[2-oxo-2-(N-phenylanilino)ethyl]piperidine-4-carboxylic acid]
rAT2R
  Ki: 28.2 nM
AT2R [3]
  IC50: 5.64 nM
  IC80: 22.6 nM
  ex vivo IC50 (TER): 0.200 TER
  ex vivo IC80 (TER): 0.800 TER
AT2R [3]; rat adrenal, read-out: % RO
  receptor occupancy at 3 mg/kg: 23.4%
  receptor occupancy at 10 mg/kg: 44.6%
  receptor occupancy at 30 mg/kg: 41.6%
  receptor occupancy at 100 mg/kg: 54.6%
[5]; oral dose 3 mg/kg
  [plasma, free, nM]: 0.729 nM
[5]; oral dose 10 mg/kg
  [plasma, free, nM]: 2.25 nM
[5]; oral dose 30 mg/kg
  [plasma, free, nM]: 6.42 nM
[5]; oral dose 100 mg/kg
  [plasma, free, nM]: 10.4 nM

## CN(C(=O)N1CCC(CC(=O)N(c2ccccc2)c2ccccc2)(C(=O)O)CC1)c1ccc(F)cc1 [Example 2, 1-[(4-fluorophenyl)-methyl-carbamoyl]-4-[2-oxo-2-(N-phenylanilino)ethyl]piperidine-4-carboxylic acid]
[1]
  Ki: 37300 nM
[5]; oral dose 0.01 mg/kg
  [plasma, free, nM]: 0.0697 nM
[5]; oral dose 0.03 mg/kg
  [plasma, free, nM]: 0.0403 nM
[5]; oral dose 0.3 mg/kg
  [plasma, free, nM]: 0.153 nM
[5]; oral dose 3 mg/kg
  [plasma, free, nM]: 0.772 nM

## CN(C(=O)N1CCC(CC(=O)N(c2ccccc2)c2ccc(F)cc2)(C(=O)O)CC1)c1ccc(F)cc1 [compound 30, 4-[2-(N-(4-fluorophenyl)anilino)-2-oxo-ethyl]-1-[(4-fluorophenyl)-methyl-carbamoyl]piperidine-4-carboxylic acid]
rAT2R
  Ki: 0.6 nM
AT2R [3]; rat adrenal, oral dose 0.01 mg/kg, read-out: % RO
  receptor occupancy at 0.01 mg/kg: 30.4%
AT2R [3]; rat adrenal, oral dose 0.03 mg/kg, read-out: % RO
  receptor occupancy at 0.03 mg/kg: 3.46%
AT2R [3]; rat adrenal, oral dose 0.3 mg/kg, read-out: % RO
  receptor occupancy at 0.3 mg/kg: 45.6%
AT2R [3]; rat adrenal, read-out: % RO
  receptor occupancy at 3 mg/kg: 88.7%

— patent publication US12122750B2, “AT2R antagonists and uses thereof” (Eli Lilly and Company, priority 2022, dated 2024)
